Measurements reported in ChEMBL document CHEMBL4706559, “New indolylarylsulfone non-nucleoside reverse transcriptase inhibitors show low nanomolar inhibition of single and double HIV-1 mutant strains” (Eur J Med Chem, 2020).

Key:
[1] = system: Human immunodeficiency virus 1; experiment: Antiviral activity against HIV-1 NL4-3 infected in human MT-4 cells assessed as virus induced cytopathic effect by MTT assay; assay type: functional, organism-based; conditions: Human immunodeficiency virus 1, NL4-3, MT4
[2] = Cytotoxicity against human MT-4 cells assessed as reduction in cell viability by MTT assay; assay type: cell-based, MT4
[3] = Selectivity ratio of CC50 for human MT4 cells to EC50 for antiviral activity against HIV-1 NL4-3 infected in human MT4 cells; assay type: toxicity, cell-based; conditions: read-out: Ratio CC50/EC50
[4] = system: Human immunodeficiency virus 1; experiment: Antiviral activity against HIV1 harboring RT K103N mutant infected in human MT4 cells assessed as protection against virus-induced cytopathic effect by MTT assay; assay type: functional, organism-based; conditions: Human immunodeficiency virus 1, MT4
[5] = system: Human immunodeficiency virus 1; experiment: Antiviral activity against HIV1 harboring RT Y181C mutant infected in human MT4 cells assessed as protection against virus-induced cytopathic effect by MTT assay; assay type: functional, organism-based; conditions: Human immunodeficiency virus 1, MT4
[6] = system: Human immunodeficiency virus 1; experiment: Antiviral activity against HIV1 harboring RT Y188L mutant infected in human MT4 cells assessed as protection against virus-induced cytopathic effect by MTT assay; assay type: functional, organism-based; conditions: Human immunodeficiency virus 1, MT4
[7] = system: Human immunodeficiency virus 1; experiment: Antiviral activity against HIV1 harboring RT K103N/Y181C double mutant infected in human MT4 cells assessed as protection against virus-induced cytopathic effect by MTT assay; assay type: functional, organism-based; conditions: Human immunodeficiency virus 1, MT4
[8] = system: Human immunodeficiency virus 1; experiment: Resistance index, ratio of EC50 for antiviral activity against HIV1 harboring RT K103N mutant infected in human MT4 cells to EC50 for antiviral activity against HIV1 NL4-3 infected in human MT4 cells; assay type: functional
[9] = system: Human immunodeficiency virus 1; experiment: Resistance index, ratio of EC50 for antiviral activity against HIV1 harboring RT Y181C mutant infected in human MT4 cells to EC50 for antiviral activity against HIV1 NL4-3 infected in human MT4 cells; assay type: functional
[10] = system: Human immunodeficiency virus 1; experiment: Resistance index, ratio of EC50 for antiviral activity against HIV1 harboring RT Y188L mutant infected in human MT4 cells to EC50 for antiviral activity against HIV1 NL4-3 infected in human MT4 cells; assay type: functional
[11] = system: Human immunodeficiency virus 1; experiment: Resistance index, ratio of EC50 for antiviral activity against HIV1 harboring RT K103N/Y181C double mutant infected in human MT4 cells to EC50 for antiviral activity against HIV1 NL4-3 infected in human MT4 cells; assay type: functional
[12] = target: Human immunodeficiency virus type 1 reverse transcriptase (Human immunodeficiency virus 1, UniProt Q72547); experiment: Inhibition of RNA-dependent DNA polymerase activity of wild type recombinant HIV-1 His-tagged p66/p51 reverse transcriptase assessed as inhibition of [3H]dTTP incorporation using poly(rA)/oligo(dT) as templates incubated for 15 mins by MicroBeta scintillation counting method
[13] = target: Human immunodeficiency virus type 1 reverse transcriptase (Human immunodeficiency virus 1, UniProt Q72547, K103N); experiment: Inhibition of RNA-dependent DNA polymerase activity of recombinant HIV-1 p66/p51 reverse transcriptase K103N mutant assessed as inhibition of [3H]dTTP incorporation using poly(rA)/oligo(dT) as templates incubated for 15 mins by MicroBeta scintillation counting method
[14] = Inhibition of RNA-dependent DNA polymerase activity of recombinant HIV-1 p66/p51 reverse transcriptase Y188L mutant assessed as inhibition of [3H]dTTP incorporation using poly(rA)/oligo(dT) as templates incubated for 15 mins by MicroBeta scintillation counting method; set-up: species or system Human immunodeficiency virus 1
[15] = Inhibition of RNA-dependent DNA polymerase activity of recombinant HIV-1 p66/p51 reverse transcriptase K103N/Y181C mutant assessed as inhibition of [3H]dTTP incorporation using poly(rA)/oligo(dT) as templates incubated for 15 mins by MicroBeta scintillation counting method; set-up: species or system Human immunodeficiency virus 1
[16] = system: Human immunodeficiency virus 1; experiment: Antiviral activity against wild type HIV-1 P1 infected in human C8166 cells assessed as reduction in viral RNA production at 25 nM; assay type: functional; conditions: Human immunodeficiency virus 1, P1, C8166
[17] = system: Human immunodeficiency virus 1; experiment: Antiviral activity against wild type HIV-1 P1 infected in human C8166 cells assessed as reduction in viral RNA production at 5 nM; assay type: functional; conditions: Human immunodeficiency virus 1, P1, C8166
[18] = system: Human immunodeficiency virus 1; experiment: Antiviral activity against wild type HIV-1 P1 infected in human C8166 cells assessed as reduction in viral RNA production at 1 nM; assay type: functional; conditions: Human immunodeficiency virus 1, P1, C8166
[19] = system: Human immunodeficiency virus 1; experiment: Antiviral activity against wild type HIV-1 P1 infected in human C8166 cells assessed as reduction in viral p24 antigen production at 25 nM; assay type: functional; conditions: Human immunodeficiency virus 1, P1, C8166

SMILES	EC50 [1] [nM]	CC50 [2] [nM]	selectivity ratio [3]	EC50 [4] [nM]	EC50 [5] [nM]	EC50 [6] [nM]	EC50 [7] [nM]	Ratio EC50 [8]	Ratio EC50 [9]	Ratio EC50 [10]	Ratio EC50 [11]	IC50 [12] [nM]	IC50 [13] [nM]	IC50 [14] [nM]	IC50 [15] [nM]	inhibition at 0.025 µM [16] [%]	inhibition at 0.005 µM [17] [%]	inhibition at 0.001 µM [18] [%]	inhibition at 0.025 µM [19] [%]
Cc1cc(C)cc(S(=O)(=O)c2c(C(=O)NC(C)C(=O)NCc3cccc(O)c3)[nH]c3ccc(Cl)cc23)c1 (configuration not stated)	< 0.6	23800	> 39600	18.5	7.4	3200	3670	>31	12	>5340	>5239	208	12	34	842	–	–	–	–
Cc1cc(C)cc(S(=O)(=O)c2c(C(=O)NCc3cccc(O)c3)[nH]c3ccc(Cl)cc23)c1	< 0.6	27000	> 44900	< 0.6	11	–	110	–	>18	–	>183	68	2	33	45	85	38	7	55
Cc1cc(C)cc(S(=O)(=O)c2c(C(=O)NCc3ccccc3N)[nH]c3ccc(Cl)cc23)c1	< 0.7	46200	> 65900	< 0.7	< 0.7	2.1	23.5	–	–	>3	>33	19	7	57	15	100	10	–	90
